In PubChem BioAssay AID330 (DTP/NCI, 2004) one finds T/C data, which are given here for 24 compounds.

This assay deals with P388 leukemia ip, CD2F1 mice, survival T/C. In words: NCI In Vivo Anticancer Drug Screen. Data for tumor model P388 Leukemia (intraperitoneal) in CD2F1 (CDF1) mice. The following applies: endpoint: median survival time, higher = longer survival. The gist of the method: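 Mice carrying the transplanted tumor received test compound or vehicle. Survival was recorded in each group, and the value is the treated-group measurement divided by that of the vehicle-treated control group.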

Where [1] appears, read: dose: 60.0 mg/kg/injection, schedule: Q01DX005 (ip), vehicle: saline with Tween-80.
[2] abbreviates: dose: 120.0 mg/kg/injection, schedule: Q01DX005 (ip), vehicle: saline with Tween-80.
[3] abbreviates: dose: 240.0 mg/kg/injection, schedule: Q01DX005 (ip), vehicle: saline with Tween-80.
Where [4] appears, read: dose: 50.0 mg/kg/injection, schedule: Q01DX005 (ip), vehicle: saline with Tween-80.
[5] abbreviates: dose: 100.0 mg/kg/injection, schedule: Q01DX005 (ip), vehicle: saline with Tween-80.
[6] abbreviates: dose: 60.0 mg/kg/injection, schedule: Q01DX005 (ip), vehicle: Klucel (hydroxypropylcellulose) (HPC).
Setting [7] is: dose: 120.0 mg/kg/injection, schedule: Q01DX005 (ip), vehicle: Klucel (hydroxypropylcellulose) (HPC).
[8] abbreviates: dose: 240.0 mg/kg/injection, schedule: Q01DX005 (ip), vehicle: Klucel (hydroxypropylcellulose) (HPC).
Where [9] appears, read: dose: 50.0 mg/kg/injection, schedule: Q01DX009 (ip), vehicle: saline.
Setting [10] is: dose: 100.0 mg/kg/injection, schedule: Q04DX003 (ip), vehicle: water.
The mark [11] stands for this setting: dose: 12.5 mg/kg/injection, schedule: Q01DX009 (ip), vehicle: saline.
The mark [12] stands for this setting: dose: 25.0 mg/kg/injection, schedule: Q01DX009 (ip), vehicle: saline.
Setting [13] is: dose: 50.0 mg/kg/injection, schedule: Q01DX009 (ip), vehicle: Klucel (hydroxypropylcellulose) (HPC).
[14] abbreviates: dose: 100.0 mg/kg/injection, schedule: Q01DX009 (ip), vehicle: Klucel (hydroxypropylcellulose) (HPC).
Where [15] appears, read: dose: 200.0 mg/kg/injection, schedule: Q01DX009 (ip), vehicle: Klucel (hydroxypropylcellulose) (HPC).

Several values for one entry are separate records, joined by “and”; a condition that tells them apart may be missing. Equal entries are not always repeated. Toxic doses and inconclusive results are not listed.

`CC(C(=O)O)c1ncnn1-c1ccccc1` (stereo unspecified): the T/C was 105 % of control (dose: 60.0 mg/kg/injection, schedule: Q01DX005 (ip), vehicle: saline); 104 % of control (dose: 120.0 mg/kg/injection, schedule: Q01DX005 (ip), vehicle: saline); 102 % of control (dose: 240.0 mg/kg/injection, schedule: Q01DX005 (ip), vehicle: saline).
For the compound `COC(=O)C1=C/CCCN(C=O)/C=C\1C(=O)OC`, the T/C reads like this: (dose: 100.0 mg/kg/injection, schedule: Q04DX003 (ip), vehicle: alcohol) 103 % of control; (dose: 200.0 mg/kg/injection, schedule: Q04DX003 (ip), vehicle: alcohol) 103 % of control; (dose: 400.0 mg/kg/injection, schedule: Q04DX003 (ip), vehicle: alcohol) 103 % of control.
With `Cc1c(C(N)=O)c(NC=O)n(-c2ccccc2)c1C`, the T/C is, setting by setting: under setting [1], 100 % of control; under setting [2], 99 % of control; under setting [3], 93 % of control.
For the compound `CN1CC=C(c2ccccc2)CC1`, the T/C runs as follows: (dose: 6.25 mg/kg/injection, schedule: Q01DX005 (ip), vehicle: saline) 97 % of control; (dose: 12.5 mg/kg/injection, schedule: Q01DX005 (ip), vehicle: saline) 99 % of control; (dose: 25.0 mg/kg/injection, schedule: Q01DX005 (ip), vehicle: saline) 101 % of control and 98 % of control.
Turning to `CC(C)CN(CC(C)C)CN(CC(C)C)CC(C)C`, the T/C under setting [4] is 100 % of control and the T/C under setting [5] was 119 % of control.
On to `CC(C)(C)NC(=O)NS(=O)(=O)c1cccnc1Sc1ccccc1Cl`, for which the T/C runs as follows: under setting [6], 107 % of control; under setting [7], 105 % of control; under setting [8], 99 % of control.
For the compound `BrCc1cn(Cc2ccccc2)nn1`, the T/C reads like this: under setting [9], 97 % of control; (dose: 100.0 mg/kg/injection, schedule: Q01DX009 (ip), vehicle: saline) 97 % of control.
As to `CC(=O)O/C1=C\CCCCCCCCCC1`, the T/C is, setting by setting: under setting [4], 95 % of control; under setting [5], 90 % of control; (dose: 200.0 mg/kg/injection, schedule: Q01DX005 (ip), vehicle: saline with Tween-80) 110 % of control.
In the case of `CC1=CC(C)(C(Cl)(Cl)Cl)C(C)=CC1=O` (stereo unspecified), the T/C reads like this: (dose: 50.0 mg/kg/injection, schedule: Q01DX005 (ip), vehicle: Klucel (hydroxypropylcellulose) (HPC)) 98 % of control; (dose: 100.0 mg/kg/injection, schedule: Q01DX005 (ip), vehicle: Klucel (hydroxypropylcellulose) (HPC)) 99 % of control; (dose: 200.0 mg/kg/injection, schedule: Q01DX005 (ip), vehicle: Klucel (hydroxypropylcellulose) (HPC)) 101 % of control.
Consider `CNC(=O)N(C)C1OC(CO)C(O)C1O` (stereo unspecified), for which the T/C is 113 % of control under setting [10]; 119 % of control (dose: 200.0 mg/kg/injection, schedule: Q04DX003 (ip), vehicle: water); 119 % of control (dose: 400.0 mg/kg/injection, schedule: Q04DX003 (ip), vehicle: water).
Turning to `COc1cccc2c1C(=O)c1c(O)c3c(c(O)c1C2=O)C[C@@](O)(C(C)=O)C[C@@H]3OC1CC(NCC(c2ccccc2)c2ccccc2)C(O)C(C)O1` (stereo partly specified), the T/C was 100 % of control (dose: 6.25 mg/kg/injection, schedule: Q04DX003 (ip), vehicle: water); 101 % of control (dose: 12.5 mg/kg/injection, schedule: Q04DX003 (ip), vehicle: water); 105 % of control (dose: 25.0 mg/kg/injection, schedule: Q04DX003 (ip), vehicle: water); 110 % of control (dose: 50.0 mg/kg/injection, schedule: Q04DX003 (ip), vehicle: water); 117 % of control under setting [10].
Consider `Cc1noc(NS(=O)(=O)c2ccc(NCc3c4ccccc4nc4cc(Cl)ccc34)cc2)c1C`, for which the T/C is, setting by setting: under setting [1], 100 % of control; under setting [2], 97 % of control; under setting [3], 103 % of control.
In the case of `O=S(=O)(CCS(=O)(=O)c1ccccc1)c1ccccc1`, the T/C by setting is: (dose: 50.0 mg/kg/injection, schedule: Q01DX009 (ip), vehicle: saline with Tween-80) 92 % of control; (dose: 100.0 mg/kg/injection, schedule: Q01DX009 (ip), vehicle: saline with Tween-80) 92 % of control; (dose: 200.0 mg/kg/injection, schedule: Q01DX009 (ip), vehicle: saline with Tween-80) 89 % of control.
Take `CCOC(=O)C(=O)Nc1[nH]c(C)c(C)c1C#N`: the T/C (dose: 50.0 mg/kg/injection, schedule: Q01DX009 (ip), vehicle: saline + alcohol) is 91 % of control; the T/C (dose: 100.0 mg/kg/injection, schedule: Q01DX009 (ip), vehicle: saline + alcohol) was 96 % of control; the T/C (dose: 200.0 mg/kg/injection, schedule: Q01DX009 (ip), vehicle: saline + alcohol) was 89 % of control.
Regarding `CC(=O)NCCSSCCCCS(=O)O`, the T/C was 106 % of control and 115 % of control (dose: 50.0 mg/kg/injection, schedule: Q01DX005 (ip), vehicle: saline); 118 % of control and 121 % of control (dose: 100.0 mg/kg/injection, schedule: Q01DX005 (ip), vehicle: saline); 124 % of control (dose: 200.0 mg/kg/injection, schedule: Q01DX005 (ip), vehicle: saline).
As to `CN=C(NCCc1ccccc1)c1ccc(NC(=O)c2ccc(C(=O)Nc3ccc(C(=NC)NCCc4ccccc4)cc3)cc2)cc1`, the T/C by setting is: (dose: 3.12 mg/kg/injection, schedule: Q01DX005 (ip), vehicle: Klucel (hydroxypropylcellulose) (HPC)) 114 % of control; (dose: 6.25 mg/kg/injection, schedule: Q01DX005 (ip), vehicle: Klucel (hydroxypropylcellulose) (HPC)) 116 % of control and 122 % of control; (dose: 12.5 mg/kg/injection, schedule: Q01DX005 (ip), vehicle: Klucel (hydroxypropylcellulose) (HPC)) 154 % of control.
As for `Clc1nc(Cl)c2c3c(sc2n1)CCCC3`, the T/C by setting is: under setting [6], 91 % of control; under setting [7], 90 % of control; under setting [8], 99 % of control.
On to `CNC(=O)OCc1c(COC(=O)NC)c(C)n(-c2ccc(Br)cc2)c1C`, for which the T/C is 152 % of control and 154 % of control under setting [11]; 157 % of control under setting [12]; 89 % of control under setting [9].
On to `CCOC(=O)c1ccc(NC(=O)c2cccc(Cl)c2)cc1`, for which the T/C by setting is: under setting [13], 104 % of control; under setting [14], 100 % of control; under setting [15], 98 % of control.
Regarding `C[CH2][Sn]([c]1ccccc1)[c]1ccccc1`, the T/C under setting [11] was 109 % of control; the T/C under setting [12] is 114 % of control; the T/C (dose: 25.0 mg/kg/injection, schedule: Q04DX003 (ip), vehicle: saline) is 108 % of control; the T/C under setting [9] is 114 % of control and 116 % of control; the T/C (dose: 50.0 mg/kg/injection, schedule: Q04DX003 (ip), vehicle: saline) was 115 % of control; the T/C (dose: 100.0 mg/kg/injection, schedule: Q04DX003 (ip), vehicle: saline) was 109 % of control.
For the compound `Cc1cc(Br)c2c(c1N)C(=O)c1ccccc1C2=O`, the T/C runs as follows: under setting [13], 99 % of control; under setting [14], 107 % of control; under setting [15], 102 % of control.
Turning to `O=C1c2ccccc2CCC12OC2c1cccnc1` (stereo unspecified), the T/C runs as follows: (dose: 25.0 mg/kg/injection, schedule: Q01DX009 (ip), vehicle: Klucel (hydroxypropylcellulose) (HPC)) 100 % of control; under setting [13], 100 % of control; under setting [14], 104 % of control.
Turning to `CCCCCCCCCC(=O)Oc1cccc2c1CC(C[Se]c1ccccc1)C(=O)O2` (stereo unspecified), the T/C (dose: 1.88 mg/kg/injection, schedule: Q01DX005 (ip), vehicle: saline with Tween-80) was 97 % of control; the T/C (dose: 3.75 mg/kg/injection, schedule: Q01DX005 (ip), vehicle: saline with Tween-80) was 101 % of control; the T/C (dose: 7.5 mg/kg/injection, schedule: Q01DX005 (ip), vehicle: saline with Tween-80) is 89 % of control and 91 % of control.
As to `O=C(Nc1ccc(C2=NCCN2)cc1)c1cc(C(=O)Nc2ccc(C3=NCCN3)cc2)cc([N+](=O)[O-])c1`, the T/C by setting is: (dose: 167.0 mg/kg/injection, schedule: Q01DX010 (ip), vehicle: saline) 104 % of control; (dose: 250.0 mg/kg/injection, schedule: Q01DX010 (ip), vehicle: saline) 100 % of control; (dose: 375.0 mg/kg/injection, schedule: Q01DX010 (ip), vehicle: saline) 100 % of control; (dose: 512.0 mg/kg/injection, schedule: Q01DX010 (ip), vehicle: saline) 95 % of control.
